Values quoted from earlier work in patent US9265822B2 (priority 2009, dated 2016).

Test system: 2009 H1N1 swine flu virus
For `CC(=O)N[C@H]1[C@H]([C@H](O)[C@H](O)CO)OC(C(=O)O)=C[C@@H]1N=C(N)N` [zanamivir], the “effectiveness against the 2009 "swine" flu” value (from here on “effectiveness”) is listed as “effective”.
In the case of `NC12CC3CC(CC(C3)C1)C2` [amantadine], the “effectiveness” value is given as “not proven effect”.
For `CCOC(=O)C1=C[C@@H](OC(CC)CC)[C@H](NC(C)=O)[C@@H](N)C1` [oseltamivir], the “effectiveness” value is listed as “effective”.
In the case of `CC(N)C12CC3CC(CC(C3)C1)C2` (stereo not shown) [rimantadine], the “effectiveness” value is given as “not proven effect”.
